Patent publication US20100298141A1, “SUBSTITUTED PYRIDINE N-OXIDE HERBICIDES” (E. I. DU PONT DE NEMOURS AND COMPANY, priority 2007, published 2010)

Test system: Russian thistle
Experiment: Test C pre-/postemergence test
Format: in vivo, Salsola kali
Conditions: for Plant response rating, Russian Thistle: 31 g ai/ha, scale 0 to 100 (0 no effect, 100 complete control)
Source text: Seeds of plant species selected from blackgrass (Alopecurus myosuroides), downy brome (Bromus tectorum), green foxtail (Setaria viridis), Italian ryegrass (Lolium multiflorum), wheat (Triticum aestivum), wild oat (Avena fatua), catchweed bedstraw (Galium aparine), Russian thistle (Salsola kali), […] (Cynodon dactylon), Surinam grass (Brachiaria decumbens), cocklebur (Xanthium strumarium), corn (Zea mays), crabgrass (Digitaria sanguinalis), woolly cupgrass (Eriochloa villosa), giant foxtail (Setaria faberii), Goosegrass (Eleusin indica), johnsongrass (Sorghum halepense), kochia (Kochia scoparia), lambsquarters (Chenopodium album), morningglory (Ipomoea coccinea), eastern black nightshade (Solanum ptycanthum), yellow nutsedge (Cyperus esculentus), pigweed (Amaranthus retroflexus), common ragweed (Ambrosia elation), soybean (Glycine max), common (oilseed) sunflower (Helianthus annuus), and velvetleaf (Abutilon theophrasti) were planted and treated preemergence with test chemicals formulated in a non-phytotoxic solvent mixture which included a surfactant. At the same time, plants selected from these crop and weed species and also winter barley (Hordeum vulgare), canarygrass (Phalaris minor), and chickweed (Stellaria media) were treated with postemergence applications of some of the test chemicals formulated in the same manner. Plants ranged in height from 2 to 18 cm (1- to 4-leaf stage) for postemergence treatments. […] At time of treatment, test pots were flooded to 3 cm above the soil surface, treated by application of test compounds directly to the paddy water, and then maintained at that water depth for the duration of the test. […] A dash (-) response means no test result.

[1] = 62 g ai/ha, Preemergence, scale 0 to 100
[2] = 125 g ai/ha, preemergence, scale 0 (no effect) to 100 (complete control)
[3] = preemergence, 250 g ai/ha, scale 0 (no effect) to 100 (complete control)

`C#CCOc1c(C[S+]([O-])c2cccc[n+]2[O-])c(C(F)(F)F)nn1C` (stereo not shown) [Compound 76] was tested, and the “Russian Thistle plant response rating” value [1] was 100, the “Russian Thistle plant response rating” value [2] was 100 and the “Plant response rating, Russian Thistle” value (Preemergence) was 0. The “Russian Thistle plant response rating” value [3] was 100.

In the case of `Cc1cc[n+]([O-])c(S(=O)(=O)Cc2c(C(F)(F)F)nn(C)c2OCC(F)F)c1` [Compound 94], the “Russian Thistle plant response rating” value [1] was 100, the “Russian Thistle plant response rating” value [2] was 100 and the “Plant response rating, Russian Thistle” value (Preemergence) was 100. The “Russian Thistle plant response rating” value [3] was 100.

With `Cn1nc(C(F)(F)F)c(CS(=O)(=O)c2ccc(Cl)c[n+]2[O-])c1Cl` [Compound 18] the “Russian Thistle plant response rating” value [1] was 30 and the “Plant response rating, Russian Thistle” value (Preemergence) was 0.
